# Experimental data reported in patent US20250129103A1, “METHODS FOR TREATMENT OF CANCER” (Frontier Medicines Corporation, priority 2022, published 2025).
# Target: KRAS G12C (GMPPNP-loaded) and cRAF (Ras-binding domain) interaction (Homo sapiens (Human), UniProt P01116, C118S/C51S/C80L/G12C)
# Assay: Inhibition of KRAS G12C and cRAF binding (AlphaScreen)
# Conditions: KRAS G12C loaded with GMPPNP, cRaf RBD, 2 hours preincubation; read-out: Raf-1 RBD K-Ras IC50
# Method: Compounds were diluted in 100% DMSO and each compound concentration was spotted at 200 nl/well onto low volume, white 384 well plates. […] KRAS G12C was preloaded with the GTP analogue Guanosine 5′-[β,γ-imido]triphosphate (GMPPNP). The KRAS G12C was diluted in 25 mM Hepes, pH 7.4, 150 mM NaCl, 5 mM MgCl2, 0.01% TritonX-100 and 10 μM GMPPNP and added at 10 ul/well to compound-spotted plates resulting in a DMSO concentration of 2%. Plates were incubated for 2 hours. A mixture of RBD and the AlphaScreen streptavidin donor and glutathione acceptor beads diluted in 25 mM Hepes, pH 7.4, 150 mM NaCl, 5 mM MgCl2, 0.01% TritonX-100 and 2% DMSO was then added at 10 ul/well and incubated for 60-90 minutes before the samples were read for emission at 570 nm after excitation of the donor beads at 680 nm. All incubations were performed at room temperature. The final top compound concentration was 50 μM with 1:3 titrations for 10-point dose response curves. […] IC50S were determined using nonlinear regression fit of [inhibitor] vs. response (4 parameters). […]
# Chain of KRAS G12C (GMPPNP-loaded) and cRAF (Ras-binding domain) interaction (P01116 other isoform, or with tags, fused parts or gaps G12C/C51S/C80L/C118S): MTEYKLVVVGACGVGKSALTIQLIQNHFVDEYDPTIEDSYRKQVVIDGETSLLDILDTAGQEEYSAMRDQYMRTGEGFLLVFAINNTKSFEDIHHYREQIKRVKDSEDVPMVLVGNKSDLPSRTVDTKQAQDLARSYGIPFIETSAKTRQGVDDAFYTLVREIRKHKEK
row,SMILES,IC50 [µM]
1,N#CC[C@H]1CN(c2nc(OC[C@@]34CCCN3C[C@H](F)C4)nc3c(F)c(-c4cccc5ccc(F)c(F)c45)ncc23)CCN1C(=O)/C=C/CN1CCn2ncnc2C1 [Compound 266],0.1 to 0.5
2,CC(C)c1noc(/C=C/C(=O)N2CCN(c3nc(OC[C@@]45CCCN4C[C@H](F)C5)nc4c(F)c(-c5cccc6cccc(Cl)c56)ncc34)C[C@@H]2CC#N)n1 [Compound 121],0.1 to 0.5
3,C[C@@H]1CN(C/C=C/C(=O)N2CCN(c3nc(OCC45CCCN4CCC5)nc4c3CCN(c3cccc5cccc(Cl)c35)C4)C[C@@H]2CC#N)C[C@H](C)O1 [Compound 196],0.01 to 0.1
4,N#CC[C@H]1CN(c2nc(OC[C@@]34CCCN3C[C@H](F)C4)nc3c(F)c(-c4cccc(Cl)c4C4CC4)ncc23)CCN1C(=O)/C=C/CN1CC[C@@H](F)C1 [Compound 284],< 0.01
5,N#CC[C@H]1CN(c2nc(OC[C@@]34CCCN3C[C@H](F)C4)nc3c(F)c(-c4ccc(F)c(F)c4C4CC4)ncc23)CCN1C(=O)/C=C/CN1[C@@H]2CC[C@H]1COC2 [Compound 272],0.01 to 0.1
6,COC1CN(C/C=C/C(=O)N2CCN(c3nc(OCC45CCCN4CCC5)nc4c3CCN(c3cccc5cccc(Cl)c35)C4)C[C@@H]2CC#N)C1 [Compound 205],< 0.01
7,CC(C)c1noc(/C=C/C(=O)N2CCN(c3nc(OCC45CCCN4CCC5)nc4c(F)c(-c5cccc6ccc(F)c(Cl)c56)ncc34)C[C@@H]2CC#N)n1 [Compound 129],0.1 to 0.5
8,Cn1cnc(/C=C/C(=O)N2CCN(c3nc(OC[C@@]45CCCN4C[C@H](F)C5)nc4c(F)c(-c5cccc6cccc(Cl)c56)ncc34)C[C@@H]2CC#N)c1 [Compound 42],> 0.5
9,CC(C)c1noc(/C=C/C(=O)N2CCN(c3nc(OCC45CCCN4CCC5)nc4c3CCN(c3ccccc3C(F)F)C4)C[C@@H]2CC#N)n1 [Compound 144],> 0.5
10,N#CC[C@H]1CN(c2nc(OCC34CCCN3CCC4)nc3c(F)c(-c4cccc5cccc(Cl)c45)ncc23)CCN1C(=O)/C=C/CN1C[C@H]2C[C@@H]1CO2 [Compound 185],< 0.01
11,Cc1cc(/C=C/C(=O)N2CCN(c3nc(OC[C@@]45CCCN4C[C@H](F)C5)nc4c(F)c(-c5cccc6c(C)c(F)ccc56)ncc34)C[C@@H]2CC#N)nc(C)n1 [Compound 250],0.1 to 0.5
12,CC(C)c1noc(/C=C/C(=O)N2CCN(c3nc(OC[C@]45CCCN4C[C@H](F)C5)nc4c(F)c(-c5cccc6ccc(F)c(Cl)c56)ncc34)C[C@@H]2CC#N)n1 [Compound 133],0.01 to 0.1
13,CC(C)c1noc(/C=C/C(=O)N2CCN(c3nc(OC[C@@]45CCCN4C[C@H](F)C5)nc4c(F)c(-c5cccc6ccc(F)c(Cl)c56)ncc34)C[C@@H]2CC#N)n1 [Compound 132],0.01 to 0.1
14,N#CC[C@H]1CN(c2nc(OC[C@@]34CCCN3C[C@H](F)C4)nc3c(F)c(-c4cccc5cccc(Cl)c45)ncc23)CCN1C(=O)/C=C/CN1CCn2ncnc2C1 [Compound 267],0.01 to 0.1
15,CO[C@H]1CCN(C/C=C/C(=O)N2CCN(c3nc(OCC45CCCN4CCC5)nc4c3CCN(c3cccc5cccc(Cl)c35)C4)C[C@@H]2CC#N)C1 [Compound 200],< 0.01
16,N#CC[C@H]1CN(c2nc(OC[C@@]34CCCN3C[C@H](F)C4)nc3c(F)c(-c4cccc5ccc(F)c(Cl)c45)ncc23)CCN1C(=O)/C=C/CN1CCS(=O)(=O)CC1 [Compound 213],0.1 to 0.5
17,Cc1c(F)ccc2c(-c3ncc4c(N5CCN(C(=O)/C=C/CN6[C@@H]7CC[C@H]6COC7)[C@@H](CC#N)C5)nc(OC[C@@]56CCCN5C[C@H](F)C6)nc4c3F)cccc12 [Compound 251],0.1 to 0.5
18,Cn1cnc(/C=C/C(=O)N2CCN(c3nc(OC[C@@]45CCCN4C[C@H](F)C5)nc4c3CCN(c3cccc5cccc(Cl)c35)C4)C[C@@H]2CC#N)c1 [Compound 44],0.1 to 0.5
19,N#CC[C@H]1CN(c2nc(OC[C@@]34CCCN3C[C@H](F)C4)nc3c(F)c(-c4cccc5cccc(Cl)c45)ncc23)CCN1C(=O)/C=C/CN1C[C@H]2COC[C@H]21 [Compound 291],0.01 to 0.1
20,N#CC[C@H]1CN(c2nc(OCC34CCCN3CCC4)nc3c2CCN(c2cccc4cccc(Cl)c24)C3)CCN1C(=O)/C=C/CN1CCC(F)(F)C1 [Compound 176],0.01 to 0.1
